Test: Preliminary solubility tests
Format: physicochemical
Details: preliminary solubility tests for both compounds

hydrophobicity compared with paclitaxel: more hydrophobic
SMILES: CC(=O)N(C(C)=O)C1=C(Cl)C(=O)c2ccccc2C1=O [Zapp88, 2-chloro-3-diacetylamino-1,4-naphthoquinone]
